According to EP4559896A1, “PH-SENSITIVE CATIONIC LIPID AND LIPID NANOPARTICLE” (National University Corporation Hokkaido University, priority 2022, dated 2024):

Key:
[1] = average particle size and polydispersity index by dynamic light scattering; assay type: physicochemical; conditions: Fluc mRNA-loaded lipid nanoparticles
Experimental: The average particle size (number average value), ζ-average particle size, and polydispersity index (PdI) of the lipid nanoparticles in PBS(-) (pH 7.4), and the zeta potential in 10 mM HEPES buffer (pH 7.4) were measured using an analyzer "Zetasizer Nano ZS ZEN3600" (manufactured by Malvern) utilizing dynamic light scattering.

[2] = encapsulation rate of lipid nanoparticles (RiboGreen); assay type: physicochemical; conditions: Fluc mRNA-loaded lipid nanoparticles
Experimental: The encapsulation rate of the lipid nanoparticles was determined by measuring the amount of encapsulated nucleic acid (mRNA) using RiboGreen (manufactured by Life Technologies), which is an RNAintercalator. The amount of mRNA was quantified based on a calibration curve prepared from a dilution series solution of mRNA at a known concentration.
Specifically, 10 mM HEPES buffer (pH 7.4), 10 w/v% Triton X-100, and RiboGreen were mixed at 978.8 µL, 20 µL, and 1.25 µL per 10 wells, respectively, to obtain a Triton(+) buffer. A Triton(-) buffer was obtained in replacing Triton X-100 with 10 mM HEPES buffer (pH 7.4). 100 µL/well of the sample was added to a black 96-well plate for fluorescence measurement, and 100 µL/well of Triton(+) buffer or Triton(-) buffer was added. After the plate was gently shaken on a shaking incubator (SI-300, manufactured by AS ONE) (700 rpm, 30 seconds), the fluorescence intensity of each well was measured using a microplate reader (VARIOSKAN LUX, manufactured by Thermo Fisher Scientific) (wavelength Ex/Em=500 nm/525 nm), and the nucleic acid encapsulation rate (%) was calculated.

BALB/c mice = assay: Fluc activity in tissues of mice administered with Fluc mRNA-loaded lipid nanoparticles; assay type: in vivo; conditions: for luciferase activity in the lung compared with control mice (CL4F6-containing lipid nanoparticles) / luciferase activity in the heart compared with control mice (CL4F6-containing lipid nanoparticles) / luciferase activity in the muscle compared with control mice (CL4F6-containing lipid nanoparticles) / luciferase activity in the spleen compared with control mice (CL4F6-containing lipid nanoparticles): TOT/DSPC/chol/PEG-DMG=65/15/20/1.5, control CL4F6/DSPC/chol/PEG-DMG=50/10/40/1.5 (mol%)
Experimental: Lipid nanoparticles were administered to mice by intravenous injection into the tail vein using a 27G needle. Unless otherwise specified, BALB/c mice (4 to 5 weeks old, female) were used.
First, BALB/c mice (female, 4 weeks old) were intravenously injected with lipid nanoparticles encapsulating Fluc mRNA (Fluc mRNA-loaded lipid nanoparticles) at a dose of 0.01 mg mRNA/kg. Six hours after intravenous injection, the mice were euthanized, each tissue was collected, frozen in liquid nitrogen, and stored at -80°C. The tissues were homogenized in passive lysis buffer (manufactured by Promega) using a bead-type cell disruptor (Micro Smash MS-100R, manufactured by TOMY Seiko). Tissue debris was removed by centrifugation, and the supernatant was collected. Fluc activity in the supernatant was measured using the Luciferase Assay System (E1500, manufactured by Promega) according to the manufacturer's protocol. Luminescence was measured using a luminometer (Luminescencer-PSN, manufactured by ATTO). Protein concentration was determined using a commercially available assay kit (BCA Protein Assay Kit, manufactured by Pierce). Fluc activity was expressed as relative light units (RLU) per mg of protein.
Specifically, first, each lipid nanoparticle was intravenously administered into the tail vein of mice in an amount of 0.2 mg/kg of Fluc mRNA, and 6 hours after administration of the lipid nanoparticles, about 50 mg each of the liver, spleen, lung, heart, brain, and muscle was collected and stored frozen. 500 µL of passive lysis buffer (manufactured by Promega) was added to each tube containing the collected organ. The liver was homogenized at 4000 rpm for 20 seconds twice, the spleen, kidney, lung, and heart were homogenized at 5000 rpm for 20 seconds twice, and the muscle was homogenized at 5000 rpm for 20 seconds four times; then, the homogenate was centrifuged at 13000 rpm at 4°C for 10 minutes, and the supernatant was collected as a sample for measurement. The liver and spleen were diluted 100 times with passive lysis buffer. 50 µL of a measurement sample (tissue supernatant) was mixed with 50 µL of luciferase assay buffer of the Luciferase Assay System (E1500, manufactured by Promega) previously added in a test tube by pipetting, and the amount of luminescence was measured with a luminometer. Protein concentration was determined using a commercially available assay kit (BCA Protein Assay Kit, manufactured by Pierce). Fluc activity was expressed as relative light units (RLU) per mg of protein.

[3] = TOT/DSPC/chol/PEG-DMG=65/15/20/1.5 (mol%)
[4] = TOT-4/DSPC/chol/PEG-DMG=65/15/20/1.5, CL4F6/DSPC/chol/PEG-DMG=50/10/40/1.5 (mol%)
[5] = Example 15, TOT-4/PC/chol/PEG-DMG=65/15/20/1 (mol%), PC = DSPC, i.v. tail vein

Row | PdI [1, 3] | ζ-Average Particle Size [1, 3] | Encapsulation Rate [2, 3] | Molecule | luciferase activity in the lung compared with control mice (CL4F6-containing lipid nanoparticles) (BALB/c mice; Example 33, i.v. tail vein) | luciferase activity in the heart compared with control mice (CL4F6-containing lipid nanoparticles) (BALB/c mice; Example 33, i.v. tail vein) | luciferase activity in the muscle compared with control mice (CL4F6-containing lipid nanoparticles) (BALB/c mice; Example 33, i.v. tail vein) | also measured
1 | 0.261 | 142.6 nm | 92.2% | CCCCCCCC/C=C\CCCCCCCC(=O)OCC(COC(=O)CCCCCCC/C=C\CCCCCCCC)(COC(=O)CCCCCCC/C=C\CCCCCCCC)NC(=O)C1CCN(C(C)C)CC1 [TOT-19, 2-(1-isopropylpiperidine-4-carboxamide)-2-((oleoyloxy)methyl)propane-1,3-diyl dioleate] | highest | very high | very high | –
2 | 0.263 | 201.8 nm | 94.7% | CCCCCCCC/C=C\CCCCCCCC(=O)OCC(COC(=O)CCCCCCC/C=C\CCCCCCCC)(COC(=O)CCCCCCC/C=C\CCCCCCCC)NC(=O)C1CCN(C)C1 (stereo not drawn) [TOT-20, 2-(1-methylpyrrolidine-3-carboxamide)-2-((oleoyloxy)methyl)propane-1,3-diyl dioleate] | – | – | – | –
3 | 0.232 | 128.0 nm | 92.4% | CCCCCCCC/C=C\CCCCCCCC(=O)OCC(COC(=O)CCCCCCC/C=C\CCCCCCCC)(COC(=O)CCCCCCC/C=C\CCCCCCCC)NC(=O)CNC [TOT-7, 2-(2-(methylamino)acetamido)-2-((oleoyloxy)methyl)propane-1,3-diyl dioleate] | – | higher | – | –
4 | 0.180 | 99.2 nm | 87.6% | CCCCCCCC/C=C\CCCCCCCC(=O)OCC(COC(=O)CCCCCCC/C=C\CCCCCCCC)(COC(=O)CCCCCCC/C=C\CCCCCCCC)NC(=O)CCN(C)CC [TOT-16, 2-(3-(ethyl(methyl)amino)propanamido)-2-((oleoyloxy)methyl)propane-1,3-diyl dioleate] | – | higher | higher | luciferase activity in the spleen compared with control mice (CL4F6-containing lipid nanoparticles) (BALB/c mice; Example 33, i.v. tail vein): higher
5 | 0.319 | 130.0 nm | 92.2% | CCCCCCCC/C=C\CCCCCCCC(=O)OCC(COC(=O)CCCCCCC/C=C\CCCCCCCC)(COC(=O)CCCCCCC/C=C\CCCCCCCC)NC(=O)C1CCN(CC)CC1 [TOT-18, 2-(1-ethylpiperidine-4-carboxamide)-2-((oleoyloxy)methyl)propane-1,3-diyl dioleate] | higher | – | very high | –
6 | 0.213 | 87.1 nm | 85.7% | CCCCCCCC/C=C\CCCCCCCC(=O)OCC(COC(=O)CCCCCCC/C=C\CCCCCCCC)(COC(=O)CCCCCCC/C=C\CCCCCCCC)NC(=O)[C@@H](N)CO [TOT-8, 2-((S)-2-amino-3-hydroxypropanamido)-2-((oleoyloxy)methyl)propane-1,3-diyl dioleate] | – | – | – | –

Continued, molecule first:

Row | Molecule | PdI [1, 3] | ζ-Average Particle Size [1, 3] | Encapsulation Rate [2, 3] | luciferase activity in the lung compared with control mice (CL4F6-containing lipid nanoparticles) (BALB/c mice; Example 33, i.v. tail vein) | luciferase activity in the heart compared with control mice (CL4F6-containing lipid nanoparticles) (BALB/c mice; Example 33, i.v. tail vein) | luciferase activity in the muscle compared with control mice (CL4F6-containing lipid nanoparticles) (BALB/c mice; Example 33, i.v. tail vein) | also measured
7 | CCCCCCCC/C=C\CCCCCCCC(=O)OCC(COC(=O)CCCCCCC/C=C\CCCCCCCC)(COC(=O)CCCCCCC/C=C\CCCCCCCC)NC(=O)CCN(C)C [TOT-1, 2-(3-(dimethylamino)propanamido)-2-((oleoyloxy)methyl)propane-1,3-diyl dioleate] | 0.324 | 138.0 nm | 85.9% | – | – | – | –
8 | CCCCCCCC/C=C\CCCCCCCC(=O)OCC(COC(=O)CCCCCCC/C=C\CCCCCCCC)(COC(=O)CCCCCCC/C=C\CCCCCCCC)NC(=O)C1CCN(C)CC1 [TOT-3, 2-(1-methylpiperidine-4-carboxamide)-2-((oleoyloxy)methyl)propane-1,3-diyl dioleate] | 0.344 | 167.2 nm | 92.3% | higher | – | – | –
9 | 7-(4-(diisopropylamino)butyl)-13-((2-hexylnonanoyl)oxy)-7-hydroxytridecyl 2-hexyldecanoate [CL4F6, reference compound] | – | – | – | – | – | – | Number Average Particle Size [1, 4]: 59.4 nm; PdI [1, 4]: 99.0; ζ-Average Particle Size [1, 4]: 90.7 nm
10 | CCCCCCCC/C=C\CCCCCCCC(=O)OCC(COC(=O)CCCCCCC/C=C\CCCCCCCC)(COC(=O)CCCCCCC/C=C\CCCCCCCC)NC(=O)CCN(CC)CC [TOT-4, 2-(3-(diethylamino)propanamido)-2-((oleoyloxy)methyl)propane-1,3-diyl dioleate] | 0.157 | 134.3 nm | 83.5% | higher | very high | very high | Number Average Particle Size [1, 4]: 33.5 nm; ζ-Average Particle Size [1, 4]: 134.3 nm; Fluc activity (RLU/mg protein) in the liver and spleen (BALB/c mice; Example 13, TOT/DOPE/chol/PEG-DMG=60/15/25/1.0 (mol%), i.v. tail vein): very high; Fluc activity in the spleen compared with the liver (BALB/c mice; Example 15, TOT-4/PC/chol/PEG-DMG=65/15/20/1 (mol%), PC = DPPC, i.v. tail vein): higher Fluc activity in the spleen than in the liver; Fluc activity (RLU/mg protein) in the liver and spleen (BALB/c mice; Example 15, TOT-4/PC/chol/PEG-DMG=65/15/20/1 (mol%), PC = DSPC, DPPC, POPC, or DOPC, i.v. tail vein): confirmed; Fluc activity (RLU/mg protein) in the liver (BALB/c mice; [5]): relatively suppressed; Fluc activity in the spleen compared with the liver (BALB/c mice; [5]): higher Fluc activity in the spleen than in the liver; Fluc activity (RLU/mg protein) in the spleen (BALB/c mice; Example 16, TOT/DSPC/chol/PEG-DMG=65/15/20/1.5 (mol%), i.v. tail vein): very high; gene expression in the spleen, times higher than Fluc mRNA-loaded lipid nanoparticles using RNA-LPX (BALB/c mice; Example 17, TOT-4/DSPC/chol/PEG-DMG=65/15/20/1.5 (mol%) versus RNA-LPX (DOTMA/DOPE=50/50 mol%), i.v. tail vein): 24 times; gene expression in the spleen and liver (BALB/c mice; Example 18, TOT-4/DSPC/chol/PEG-DMG=65/15/20/1.5 (mol%), similar to CL4F6/DSPC/chol/PEG-DMG=50/10/40/1.5, i.v. tail vein): high; luciferase activity in the spleen, lung, brain, heart, and muscle compared with CL4F6-containing lipid nanoparticles (BALB/c mice; Example 19, TOT-4/DSPC/chol/PEG-DMG=65/15/20/1.5 versus CL4F6/DSPC/chol/PEG-DMG=50/10/40/1.5 (mol%), i.v. 0.2 mg/kg of Fluc mRNA, 6 hours, N=3): higher; luciferase activity in the brain (BALB/c mice; Example 33, TOT/DSPC/chol/PEG-DMG=65/15/20/1.5 (mol%), i.v. tail vein): remarkably high; luciferase activity in the spleen compared with control mice (CL4F6-containing lipid nanoparticles) (BALB/c mice; Example 33, i.v. tail vein): higher; Encapsulation Rate [2, 4]: 0.157%
11 | CCCCCCCC/C=C\CCCCCCCC(=O)OCC(COC(=O)CCCCCCC/C=C\CCCCCCCC)(COC(=O)CCCCCCC/C=C\CCCCCCCC)NC(=O)CN [TOT-6, 2-(2-aminoacetamido)-2-((oleoyloxy)methyl)propane-1,3-diyl dioleate] | 0.190 | 102.5 nm | 95.4% | – | – | – | –
